Earlier results in patent publication US20260263442A1, “METHOD FOR TREATING L-DOPA-INDUCED DYSKINESIA USING BEFIRADOL” (Neurolixis, Inc., priority 2023, published 2026).

Legend:
[1] = system: striatal 5-HT1A receptors; details: striatum of rat, cat, macaque and human; cited from earlier work
[2] = system: L-DOPA-induced dyskinesia in Parkinson's patients; details: human, in vivo; cited from earlier work
[3] = system: L-DOPA-induced dyskinesia in Parkinson's patients; details: cited from earlier work; for Efficacy to alleviate LID, clinically tested / Effect on motor symptoms of Parkinson's disease: human, in vivo

Row | Structure (SMILES) | Efficacy to alleviate LID, clinically tested [3] | Effect on motor symptoms of Parkinson's disease [3] | further results
1 | Cc1ccc(CNCC2(F)CCN(C(=O)c3ccc([18F])c(Cl)c3)CC2)nc1 [^18F-NLX-112] |  |  | Labelling of 5-HT1A receptors, PET brain imaging [1]: consistently labelled striatal 5-HT1A receptors
2 | NC12CC3CC(CC(C3)C1)C2 [amantadine] |  |  | Proportion of patients who are non-responders [2]: about ⅓; Side effects limiting use [2]: hallucinations, confusion, leg edema, orthostatic hypotension
3 | O=C1CC2(CCCC2)CC(=O)N1CCCCN1CCN(c2ncccn2)CC1 [buspirone] | limited efficacy |  | 
4 | c1cc2c(c(N3CCNCC3)c1)OCCO2 [eltoprazine] | limited efficacy |  | 
5 | Fc1ccc(-c2cncc(CNC[C@H]3CCc4ccccc4O3)c2)cc1 [sarizotan] | limited efficacy | no beneficial effect or even the opposite effect | Effect on L-DOPA efficacy, phase 2b study ([3]; Parkinson's patients with troublesome L-DOPA-induced dyskinesia): two of the three tested doses significantly reduced L-DOPA efficacy; Reduction of LID, two phase 3 clinical trials ([3]; third (and lowest) dose): ineffective in reducing LID
6 | O=C1[C@@H]2[C@H]3CC[C@H](C3)[C@@H]2C(=O)N1CCCCN1CCN(c2ncccn2)CC1 [tandospirone] | limited efficacy | no beneficial effect or even the opposite effect | 
